Reference: PMC4564450, “Oral and inhaled p38 MAPK inhibitors: effects on inhaled LPS challenge in healthy subjects” (European Journal of Clinical Pharmacology, 2015)

Legend:
[1] = tested on: sputum neutrophils and macrophages after inhaled LPS; assay: Inhaled LPS challenge in healthy subjects: induced sputum cell counts; format: in vivo, human; details: for attenuation of the modelled LPS response (sputum neutrophil percentage): PH-797804: studies 1 and 2, PF-03715455: study 2; for Mean (SD) sputum neutrophil percentage: 6 h post-LPS; for Macrophage Differential in sputum / Total Cell Count in sputum / Total Macrophage Count in sputum / Total Neutrophil Count in sputum: ANCOVA model mean; for Macrophage Differential in sputum, difference between the active treatment mean and the placebo mean: footnote: difference, not ratio
Experimental: Three randomised, double-blind, placebo-controlled crossover studies were performed; the effects of a single dose of active treatment was investigated in all three studies. […] Studies 2 and 3 were conducted at two UK centres: Quintiles Drug Research Unit, London, and Medicines Evaluation Unit, Manchester. […] The studies were performed during the following time periods: study 1, Sep 2006–Mar 2008; study 2, Jan 2011–Dec 2011; and study 3, Jul 2011–Jan 2012. The design of all three studies was similar. A baseline sputum sample was obtained within 14 days of the first study period when subjects were administered a single dose of randomised treatment. […] Induced sputum was obtained 6 h later to coincide with the maximal inflammatory response caused by inhaled LPS. […] This criterion was used to ensure that sputum cell counts after LPS challenge had returned to close to the original baseline values; this was done to reduce data variability between treatment periods. […] For each challenge, a 1-mg vial of lyophilised LPS (Escherichia coli serotype O26:B6, ref. L-2654, Sigma-Aldrich, Dorset, UK) was diluted with 4 mL of 0.9 % w/v sodium chloride. The reconstitution produced a 0.25 mg/mL solution, of which 2 mL was placed into the pre-calibrated dosimeter pot and administered via five inhalations from a breath-activated dosimeter (Mefar dosimeter MB3, Brescia, Italy). Each inhalation was performed over 3 s with a 6-s breath hold. […] Sputum was induced using normal saline after inhalation of salbutamol, and processing was performed using dithiothreitol (DTT) as previously described. The supernatants were stored at −80 °C for later analysis, while cells were used to produce cytoslides (Cytospin 4, Shandon, Runcorn, UK) for differential cell counting and immunocytochemistry. […] Cell viability was analysed by trypan blue exclusion. Cytoslides with % squamous cell counts <20 % were deemed to be of acceptable quality for differential cell counting. Unfixed cytoslides were wrapped in aluminium foil and stored frozen at −80 °C for immunocytochemistry. Sputum neutrophil percentage was the primary endpoint for all three studies. The neutrophil percentage was modelled using a mixed effects analysis of covariance (ANCOVA) model appropriate for a two-period, two-treatment or three-period, three-treatment crossover design. The fixed effects in the model were treatment and period. Subjects were modelled as a random effect. Additionally, the period-specific baseline was modelled as a covariate. This model was used for all sputum inflammatory markers, including the immunohistocytochemistry, where cell counts were log transformed before analyzing the data and percent differentials were not transformed. […] Ninety percent confidence intervals of the difference (non-transformed data) or the ratio (log-transformed data) were constructed based on the ANCOVA model.

[2] = tested on: IL-6, MPO, MCP-1 and MIP-1β in sputum supernatant; assay: Inhaled LPS challenge: sputum supernatant protein biomarkers; format: in vivo, human; details: for Sputum IL-6, mean / Sputum MCP-1, mean / Sputum MIP-1β, mean / Sputum MPO, mean: post LPS
Experimental: A baseline sputum sample was obtained within 14 days of the first study period when subjects were administered a single dose of randomised treatment. […] Induced sputum was obtained 6 h later to coincide with the maximal inflammatory response caused by inhaled LPS. A washout period of at least 21 days followed, with subjects returning after 14 days of the washout period for induced sputum sampling; this was performed to ensure that the total cell count, total neutrophil count and total macrophage count were within the range of −80 to +100 % of the screening values. […] If these criteria were not met, then up to two repeat visits to obtain sputum were allowed, with at least 4 days between sputum inductions. The next randomised treatment day was scheduled at least 4 days after sputum induction and was identical to the first treatment day.
Sputum was induced using normal saline after inhalation of salbutamol, and processing was performed using dithiothreitol (DTT) as previously described [20]. The supernatants were stored at −80 °C for later analysis, while cells were used to produce cytoslides (Cytospin 4, Shandon, Runcorn, UK) for differential cell counting and immunocytochemistry. Cytoslides for differential cell count were fixed in methanol (Sigma) and then stained with Rapi-Diff® (GCC Diagnostics, Sandyhurst, UK) or Wright-modified Giemsa (Accustatin WG-18, Sigma-Aldrich); a minimum of 400 non-squamous cells were counted and differential cell counts obtained as percentage of total non-squamous cells. Cell viability was analysed by trypan blue exclusion. Cytoslides with % squamous cell counts <20 % were deemed to be of acceptable quality for differential cell counting. Unfixed cytoslides were wrapped in aluminium foil and stored frozen at −80 °C for immunocytochemistry.
In studies 1 and 2, sputum supernatants were analysed for interleukin 6 (IL-6), myeloperoxidase (MPO), monocyte chemotactic protein-1 (MCP-1) and macrophage inflammatory protein-1β (MIP-1 β), using electrochemiluminescent immunoassays (ECLIA) or enzyme-linked immunosorbent assays (ELISA); the manufacturers are listed in the online supplement. In study 3, sputum supernatants were analysed for IL-6, MCP-1 and MIP-1β by the same method.

[3] = tested on: IL-8 production from epithelial cells; design: method as in Pfizer, data on file; details: ref Pfizer, data on file; cited from earlier work
[4] = healthy subjects; ref previous phase 1 studies (unpublished); cited from earlier work
[5] = Safety: treatment emergent adverse events; format: in vivo, human; details: for safety and tolerability: single doses, healthy subjects, studies 1 and 2
Experimental: Safety was assessed in these studies by physical examinations, haematology and biochemistry measurements, ECG analysis and reporting of any adverse events.
Summary of Number ofSubjects Experiencing Treatment EmergentAdverse Events by MedDRA System Organ Class

[6] = tested on: IL-6, MCP-1, MIP1β, CC16, fibrinogen and CRP levels in plasma; assay: Inhaled LPS challenge: plasma protein biomarkers; format: in vivo, human; details: study 2; for Plasma CC16, mean / Plasma CRP, mean / Plasma Fibrinogen, mean / Plasma IL-6, mean / Plasma MCP-1, mean / Plasma MIP-1β, mean: PH-797804 30 mg oral or PF-03715455 20 mg inhaled, 6 hrs post LPS
Experimental: Blood samples were obtained in studies 2 and 3 to obtain plasma measurements of IL-6, MCP-1, MIP1β, CC16, fibrinogen and CRP levels; pre-dose and 6 h post-LPS samples were used for statistical analysis. This coincided with the timings of sputum measurements of inflammation biomarkers.
Systemic biomarkers were analysed using a similar mixed effects model; these models also adjusted for pre-dose baseline values, which were obtained 24 h prior to LPS challenge in study 2 and 30 min prior to LPS challenge in study 3.

[7] = study 2, PH-797804 30 mg oral (p = 0.0001) or PF-03715455 20 mg inhaled (p = 0.031), single dose
[8] = study 2, PH-797804 30 mg oral or PF-03715455 20 mg inhaled, single dose
[9] = study 2, PH-797804 30 mg oral or PF-03715455 20 mg inhaled, post LPS
[10] = study 2, post LPS, listed as PF-03715445
[11] = study 2, PH-797804 30 mg oral or PF-03715455 20 mg inhaled
[12] = study 2, PF-03715455 20mg (n=27), PH-797804 30mg (n=23)
[13] = study 2, PF-03715455 20mg (n=27), PH-797804 30mg (n=23), hangover (PF-03715455), loss of libido and insomnia (PH-797804)
[14] = study 1, PH-797804 30 mg oral, post LPS

CC(C)(C)c1cc(NC(=O)NCc2ccccc2Sc2ccc3nnc(-c4ccccc4SCCO)n3c2)n(-c2ccc(O)c(Cl)c2)n1 [PF-03715455]
attenuation of the modelled LPS response (sputum neutrophil percentage) [1]: approximately 25% | reduction in mean sputum neutrophil percentage post-LPS compared to placebo [1, 7]: 8.0% | Mean (SD) sputum neutrophil percentage [1, 8]: 66.4 (14.0) % | Macrophage Differential in sputum [1, 9]: 30.78% | Total Cell Count in sputum [1, 9]: 3.83e+06 g⁻¹ | Total Macrophage Count in sputum [1, 9]: 1.09e+06 g⁻¹ | Total Neutrophil Count in sputum [1, 9]: 2.43e+06 g⁻¹ | Total Cell Count in sputum, Ratio of Means active/placebo ([1]; study 2, post LPS): 1.02 | Total Macrophage Count in sputum, Ratio of Means active/placebo ([1]; study 2, post LPS): 1.62 | Total Neutrophil Count in sputum, Ratio of Means active/placebo ([1]; study 2, post LPS): no effects | Macrophage Differential in sputum, difference between the active treatment mean and the placebo mean ([1]; study 2, post LPS): significantly attenuated | Macrophage Differential in sputum, difference between the active treatment mean and the placebo mean [1, 10]: 7.97% | Total Neutrophil Count in sputum, Ratio of Means active/placebo [1, 10]: 0.85 | sputum supernatant IL-6, MPO, MCP-1 and MIP-1β levels compared to placebo [2, 11]: no effects | Sputum IL-6, mean [2, 11]: 91.67 pg/mL | Sputum MCP-1, mean [2, 11]: 115.38 pg/mL | Sputum MIP-1β, mean [2, 11]: 396.35 pg/mL | Sputum MPO, mean [2, 11]: 937.04 ng/mL | IL-8 production from epithelial cells [3]: significantly inhibit | time of maximum systemic concentration (tmax) [4]: ~30 min | safety and tolerability [5]: safe and generally well tolerated | Number of subjects with treatment emergent AE: Eye Disorders [5, 12]: 0 | Number of subjects with treatment emergent AE: Gastrointestinal Disorders [5, 12]: 2 | Number of subjects with treatment emergent AE: General Disorders and Administration Site Conditions [5, 12]: 3 | Number of subjects with treatment emergent AE: Immune system disorders [5, 12]: 0 | Number of subjects with treatment emergent AE: Injury, Poisoning and Procedural Complications [5, 12]: 0 | Number of subjects with treatment emergent AE: Musculoskeletal and Connective tissue disorders [5, 12]: 0 | Number of subjects with treatment emergent AE: Nervous system disorders [5, 12]: 5 | Number of subjects with treatment emergent AE: Respiratory, thoracic and mediastinal disorders [5, 12]: 2 | Number of subjects with treatment emergent AE: Skin and subcutaneous tissue disorders [5, 12]: 1 | Number of subjects with treatment emergent AE: Vascular disorders [5, 12]: 1 | Number of subjects with treatment emergent AE: Psychiatric disorders [5, 13]: 1 | AE requiring withdrawal ([5]; study 2, one subject, 5 days after dosing, investigator did not consider it related): cellulitis | plasma IL-6, MCP-1, MIP1β and CC16 compared to placebo ([6]; PF-03715455 20 mg inhaled, 6 h post-LPS challenge): statistically significant reductions | Plasma CC16, mean [6]: 10.19 ng/mL | Plasma CRP, mean [6]: 475.90 ng/mL | Plasma Fibrinogen, mean [6]: 2340.40 µg/mL | Plasma IL-6, mean [6]: 14.43 pg/mL | Plasma MCP-1, mean [6]: 340.30 pg/mL | Plasma MIP-1β, mean [6]: 71.55 pg/mL

CNC(=O)c1ccc(C)c(-n2c(C)cc(OCc3ccc(F)cc3F)c(Br)c2=O)c1 [PH-797804]
attenuation of the modelled LPS response (sputum neutrophil percentage) [1]: approximately 50% | Mean (SD) sputum neutrophil percentage ([1]; study 1, PH-797804 30 mg oral single dose): 56.4 (24.0) % | reduction in mean sputum neutrophil percentage post-LPS compared to placebo ([1]; study 1, PH-797804 30 mg oral single dose, p = 0.0096): 15.1% | Total Macrophage Count in sputum [1, 14]: 470000 g⁻¹ | Total Neutrophil Count in sputum [1, 14]: 660000 g⁻¹ | reduction in mean sputum neutrophil percentage post-LPS compared to placebo [1, 7]: 15.3% | Mean (SD) sputum neutrophil percentage [1, 8]: 60.4 (17.9) % | Macrophage Differential in sputum [1, 9]: 36.39% | Total Cell Count in sputum [1, 9]: 2.02e+06 g⁻¹ | Total Macrophage Count in sputum [1, 9]: 620000 g⁻¹ | Total Neutrophil Count in sputum [1, 9]: 1.17e+06 g⁻¹ | Sputum IL-6, mean ([2]; study 1, PH-797804 30 mg oral): 29.66 pg/mL | Sputum MCP-1, mean ([2]; study 1, PH-797804 30 mg oral): 155.07 pg/mL | Sputum MIP-1β, mean ([2]; study 1, PH-797804 30 mg oral): 330.54 pg/mL | Sputum MPO, mean ([2]; study 1, PH-797804 30 mg oral): 669.06 ng/mL | sputum supernatant cytokine levels compared to placebo ([2]; study 1, PH-797804 30 mg oral, trends towards significance for MCP-1 and MPO): did not significantly inhibit | sputum supernatant IL-6, MPO, MCP-1 and MIP-1β levels compared to placebo [2, 11]: significantly reduced | Sputum IL-6, mean [2, 11]: 69.02 pg/mL | Sputum MCP-1, mean [2, 11]: 133.41 pg/mL | Sputum MIP-1β, mean [2, 11]: 609.10 pg/mL | Sputum MPO, mean [2, 11]: 485.28 ng/mL | IL-8 production from epithelial cells [3]: significantly inhibit | time of maximum systemic concentration (tmax) [4]: approximately 24 h | safety and tolerability [5]: safe and generally well tolerated | Number of subjects with treatment emergent AE: Eye Disorders ([5]; study 1, PH-797804 30mg (n=17)): 1 | Number of subjects with treatment emergent AE: Gastrointestinal Disorders ([5]; study 1, PH-797804 30mg (n=17)): 0 | Number of subjects with treatment emergent AE: General Disorders and Administration Site Conditions ([5]; study 1, PH-797804 30mg (n=17)): 1 | Number of subjects with treatment emergent AE: Infections and infestations ([5]; study 1, PH-797804 30mg (n=17)): 1 | Number of subjects with treatment emergent AE: Injury, Poisoning and Procedural Complications ([5]; study 1, PH-797804 30mg (n=17)): 1 | Number of subjects with treatment emergent AE: Investigation (raised blood potassium) ([5]; study 1, PH-797804 30mg (n=17)): 0 | Number of subjects with treatment emergent AE: Musculoskeletal and Connective tissue disorders ([5]; study 1, PH-797804 30mg (n=17)): 1 | Number of subjects with treatment emergent AE: Nervous system disorders ([5]; study 1, PH-797804 30mg (n=17)): 2 | Number of subjects with treatment emergent AE: Respiratory, thoracic and mediastinal disorders ([5]; study 1, PH-797804 30mg (n=17)): 0 | Number of subjects with treatment emergent AE: Skin and subcutaneous tissue disorders ([5]; study 1, PH-797804 30mg (n=17)): 0 | Number of subjects with treatment emergent AE: Psychiatric disorders ([5]; study 1, PH-797804 30mg (n=17), event was insomnia lasting 1 hr): 1 | Number of subjects with treatment emergent AE: Eye Disorders [5, 12]: 1 | Number of subjects with treatment emergent AE: Gastrointestinal Disorders [5, 12]: 0 | Number of subjects with treatment emergent AE: General Disorders and Administration Site Conditions [5, 12]: 3 | Number of subjects with treatment emergent AE: Immune system disorders [5, 12]: 0 | Number of subjects with treatment emergent AE: Infections and infestations [5, 12]: 2 | Number of subjects with treatment emergent AE: Injury, Poisoning and Procedural Complications [5, 12]: 1 | Number of subjects with treatment emergent AE: Musculoskeletal and Connective tissue disorders [5, 12]: 0 | Number of subjects with treatment emergent AE: Nervous system disorders [5, 12]: 8 | Number of subjects with treatment emergent AE: Respiratory, thoracic and mediastinal disorders [5, 12]: 3 | Number of subjects with treatment emergent AE: Skin and subcutaneous tissue disorders [5, 12]: 0 | Number of subjects with treatment emergent AE: Vascular disorders [5, 12]: 0 | Number of subjects with treatment emergent AE: Psychiatric disorders [5, 13]: 2 | Plasma CC16, mean [6]: 9.34 ng/mL | Plasma CRP, mean [6]: 462.10 ng/mL | Plasma Fibrinogen, mean [6]: 2172.70 µg/mL | Plasma IL-6, mean [6]: 5.47 pg/mL | Plasma MCP-1, mean [6]: 261.50 pg/mL | Plasma MIP-1β, mean [6]: 33.82 pg/mL | plasma IL-6, MIP1β, MCP-1, CC16 and CRP levels compared to placebo ([6]; PH-797804 30 mg oral, 6 h post-LPS challenge): statistically significant reductions
